Experimental data from ChEMBL document CHEMBL1201862, “PubChem BioAssay data set” (2004).
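Protocol summary: plate cells (96-well), add compound at 5 concentrations, incubate 48 h, interpolate endpoints linearly. GI50: concentration for 50% inhibition of growth.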 Activity calls are given as the source filed them. Rule as the data show it: active = GI50 up to about 1.1 µM and inactive = higher.

Tests used:
Assay in all cases: NCI anticancer screen, dose series, 48 h
786-0 = tested on: 786-0
A498 = tested on: A498
A549 = tested on: A549
ACHN = tested on: ACHN
BT-549 = tested on: BT-549
CAKI-1 = tested on: CAKI-1
CCRF-CEM = tested on: CCRF-CEM
COLO 205 = tested on: COLO 205
DU-145 = tested on: DU-145
EKVX = tested on: EKVX
HCC 2998 = tested on: HCC 2998
HCT-116 = tested on: HCT-116
HCT-15 = tested on: HCT-15
HL-60 = tested on: HL-60
HOP-62 = tested on: HOP-62
HOP-92 = tested on: HOP-92
HT-29 = tested on: HT-29
Hs-578T = tested on: Hs-578T
IGROV-1 = tested on: IGROV-1
K562 = tested on: K562
KM12 = tested on: KM12
LOX IMVI = tested on: LOX IMVI
M14 = tested on: M14
MCF7 = tested on: MCF7
MDA-MB-231 = tested on: MDA-MB-231
MDA-MB-435 = tested on: MDA-MB-435
MDA-N = tested on: MDA-N
MOLT-4 = tested on: MOLT-4
Malme-3M = tested on: Malme-3M
NCI-H226 = tested on: NCI-H226
NCI-H23 = tested on: NCI-H23
NCI-H460 = tested on: NCI-H460
NCI-H522 = tested on: NCI-H522
NCI/ADR-RES = tested on: NCI/ADR-RES
OVCAR-3 = tested on: OVCAR-3
OVCAR-4 = tested on: OVCAR-4
OVCAR-5 = tested on: OVCAR-5
OVCAR-8 = tested on: OVCAR-8
RPMI-8226 = tested on: RPMI-8226
RXF 393 = tested on: RXF 393
SF-268 = tested on: SF-268
SF-295 = tested on: SF-295
SF-539 = tested on: SF-539
SK-MEL-28 = tested on: SK-MEL-28
SK-MEL-2 = tested on: SK-MEL-2
SK-MEL-5 = tested on: SK-MEL-5
SK-OV-3 = tested on: SK-OV-3
SN12C = tested on: SN12C
SNB-19 = tested on: SNB-19
SNB-75 = tested on: SNB-75
SR = tested on: SR
SW-620 = tested on: SW-620
T47D = tested on: T47D
TK-10 = tested on: TK-10
UACC-257 = tested on: UACC-257
UACC-62 = tested on: UACC-62
UO-31 = tested on: UO-31

In the case of `CC(=O)c1[nH]c(NC(C)C)c(C(=S)Nc2ccccc2)c1N`, the GI50 (786-0) was 24.3 µM (inactive), the GI50 (A498) was 18.9 µM (inactive) and the GI50 (A549) was 32.3 µM (inactive). The GI50 (ACHN) was 33.3 µM (inactive), the GI50 (BT-549) was 30.5 µM (inactive) and the GI50 (CAKI-1) was 32.9 µM (inactive). The GI50 (CCRF-CEM) was 25.5 µM (inactive), the GI50 (COLO 205) was 27.9 µM (inactive) and the GI50 (DU-145) was 26.7 µM (inactive). For the same compound, the GI50 (EKVX) was 37 µM (inactive), the GI50 (HCC 2998) was 28.2 µM (inactive) and the GI50 (HCT-116) was 24.1 µM (inactive). For the same compound, the GI50 (HCT-15) was 26.9 µM, the GI50 (HL-60) was 51.6 µM (inactive) and the GI50 (HOP-62) was 38 µM (inactive). For the same compound, the GI50 (HOP-92) was 17.7 µM (inactive), the GI50 (HT-29) was 38.8 µM (inactive) and the GI50 (Hs-578T) was 36 µM (inactive). The GI50 (IGROV-1) was 26.4 µM (inactive), the GI50 (K562) was 33.4 µM (inactive) and the GI50 (KM12) was 29.6 µM (inactive). The GI50 (LOX IMVI) was 19.1 µM (inactive), the GI50 (M14) was 19.8 µM (inactive) and the GI50 (MCF7) was 19.5 µM (inactive). The GI50 (MDA-MB-231) was 22.3 µM (inactive), the GI50 (MDA-MB-435) was 21.7 µM (inactive) and the GI50 (MDA-N) was 22.1 µM (inactive). The GI50 (MOLT-4) was 37.2 µM (inactive), the GI50 (Malme-3M) was 25.7 µM (inactive) and the GI50 (NCI-H226) was 21.1 µM (inactive). For the same compound, the GI50 (NCI-H23) was 36 µM (inactive), the GI50 (NCI-H460) was 31.8 µM (inactive) and the GI50 (NCI-H522) was 16.6 µM (inactive). For the same compound, the GI50 (NCI/ADR-RES) was 68.5 µM (inactive), the GI50 (OVCAR-3) was 32.1 µM (inactive) and the GI50 (OVCAR-4) was 30.4 µM (inactive). The GI50 (OVCAR-5) was 61.8 µM (inactive), the GI50 (OVCAR-8) was 28.4 µM (inactive) and the GI50 (RPMI-8226) was 0.059 µM (active). The GI50 (RXF 393) was 18.4 µM (inactive), the GI50 (SF-268) was 25.3 µM (inactive) and the GI50 (SF-295) was 38.1 µM (inactive). For the same compound, the GI50 (SF-539) was > 100 µM (inactive), the GI50 (SK-MEL-28) was 32.4 µM (inactive) and the GI50 (SK-MEL-2) was 17.9 µM (inactive). For the same compound, the GI50 (SK-MEL-5) was 18.3 µM (inactive), the GI50 (SK-OV-3) was 65.9 µM (inactive) and the GI50 (SN12C) was 27.9 µM (inactive). The GI50 (SNB-19) was 27.8 µM (inactive), the GI50 (SNB-75) was > 100 µM (inactive) and the GI50 (SR) was 23.7 µM (inactive). For the same compound, the GI50 (SW-620) was 54.1 µM (inactive), the GI50 (T47D) was 21.4 µM (inactive) and the GI50 (TK-10) was 40.8 µM (inactive). For the same compound, the GI50 (UACC-257) was 24 µM (inactive), the GI50 (UACC-62) was 23.6 µM (inactive) and the GI50 (UO-31) was 20.5 µM (inactive).
